Measured values published in patent publication US11325940B2, “Certain chemical entities, compositions, and methods” (NeuPharma, Inc., priority 2012, dated 2022).
pIC50: −log10 of the molar value.

Test system: A549 cells
Assay: Inhibition of cancer cell growth, MTT assay
Assay type: cell-based
Conditions: Homo sapiens, A549, 72 h
Protocol: Inhibition of cell growth by compounds was measured using MTT assay (Mosmann, T., Journal of Immunological Methods, 1983, 65, 55-63). Tumor cell lines were purchased from ATCC (American Type Culture Collection, Manassas, Va.). All cell lines were maintained in RPMI 1640 (Hyclone) supplemented with 10% fetal bovine serum (FBS, Hyclone), glutamine (2 mM, Hyclone), and antibiotics (penicillin 100 U/mL and streptomycin 50 μg/mL) at 37° C. in a humidified atmosphere of 5% CO2 in air. Taxol (as a positive control, Sigma) and compounds were dissolved in DMSO (Sigma), and the final concentration of DMSO in the medium was 1%. Tumor cells were plated in 96-well plates at densities of about 4000 cells/well of a 96-well plate and allowed to adhere/grow for 24 h. They were then treated with various concentrations of drug for 72 h. 3-(4,5-Dimethylthiazol-2-yl)-2,5-diphenyltetrazolium bromide (MTT, Sigma) was used to determine the number of viable cells at the time of compound addition and the number of cells remaining after 72 h compound exposure. The number of cells remaining after 72 h was compared to the number of viable cells at the time of compound addition by measuring the absorbance at 570 nm, allowing for the calculation of growth inhibition.
All concentrations of compounds were tested in triplicate and controls were averaged over 4 wells. IC50 was calculated by plotting the concentration of compound vs the percentage of inhibition in treated wells using GraphPad Prism 5. […] The scale utilized in Table 3 is as follows: ++++ less than 20 nM; +++ between 20 nM and 100 nM; ++ between 100 nM and 1000 nM; and + greater than 1000 nM.

C[C@]12CC[C@H](NC(=O)[C@@H]3CCCN3)C[C@H]1CC[C@@H]1[C@@H]2CC[C@]2(C)[C@@H](c3ccc(=O)oc3)CC[C@]12O [Compound C14, (S)-N-((3S,5R,8R,9S,10S,13R,14S,17R)-14-hydroxy-10,13-dimethyl-17-(2-oxo-2H-pyran-5-yl)hexadecahydro-1H-cyclopenta[a]phenanthren-3-yl)pyrrolidine-2-carboxamide] and COC(=O)N[C@H]1CC[C@@]2(C)[C@H](CC[C@@H]3[C@@H]2CC[C@]2(C)[C@@H](c4ccc(=O)oc4)CC[C@]32O)C1 [Compound C17, methyl ((3S,5R,8R,9S,10S,13R,14S,17R)-14-hydroxy-10,13-dimethyl-17-(2-oxo-2H-pyran-5-yl)hexadecahydro-1H-cyclopenta[a]phenanthren-3-yl)carbamate] cannot be ordered by pIC50: over 7.70 for the first, over 7.70 for the second.

Compared with C[C@]12CC[C@@H](N)C[C@H]1CC[C@@H]1[C@@H]2CC[C@]2(C)[C@@H](c3ccc(=O)oc3)CC[C@]12O [Compound C34, 5-((3R,5R,8R,9S,10S,13R,14S,17R)-3-amino-14-hydroxy-10,13-dimethylhexadecahydro-1H-cyclopenta[a]phenanthren-17-yl)-2H-pyran-2-one], COC(=O)N(C)C1CC[C@@]2(C)[C@H](CC[C@@H]3[C@@H]2CC[C@]2(C)[C@@H](c4ccc(=O)oc4)CC[C@]32O)C1 (stereo partly drawn) [Compound C21, methyl ((5R,8R,9S,10S,13R,14S,17R)-14-hydroxy-10,13-dimethyl-17-(2-oxo-2H-pyran-5-yl)hexadecahydro-1H-cyclopenta[a]phenanthren-3-yl)(methyl)carbamate] is higher in pIC50: under 6.00 for the first, over 7.70 for the second.

First: C[C@]12CCC(N3CCNCC3)C[C@H]1CC[C@@H]1[C@@H]2CC[C@]2(C)[C@@H](c3ccc(=O)oc3)CC[C@]12O (stereo partly drawn) [Compound C15, 5-((5R,8R,9S,10S,13R,14S,17R)-14-hydroxy-10,13-dimethyl-3-(piperazin-1-yl)hexadecahydro-1H-cyclopenta[a]phenanthren-17-yl)-2H-pyran-2-one]
Second: C[C@]12CC[C@H](NC(=O)NCCO)C[C@H]1CC[C@@H]1[C@@H]2CC[C@]2(C)[C@@H](c3ccc(=O)oc3)CC[C@]12O [Compound C09, 1-((3S,5R,8R,9S,10S,13R,14S,17R)-14-hydroxy-10,13-dimethyl-17-(2-oxo-2H-pyran-5-yl)hexadecahydro-1H-cyclopenta[a]phenanthren-3-yl)-3-(2-hydroxyethyl)urea]
The pIC50 of the first is higher: over 7.70 for the first, 7.00 to 7.70 for the second.

Compound CC(C)[C@@H](N)C(=O)N[C@H]1CC[C@@]2(C)[C@H](CC[C@@H]3[C@@H]2CC[C@]2(C)[C@@H](c4ccc(=O)oc4)CC[C@]32O)C1 [Compound C25, (R)-2-amino-N-((3S,5R,8R,9S,10S,13R,14S,17R)-14-hydroxy-10,13-dimethyl-17-(2-oxo-2H-pyran-5-yl)hexadecahydro-1H-cyclopenta[a]phenanthren-3-yl)-3-methylbutanamide] has a pIC50 of over 7.70.

Same assay, conditions: Homo sapiens; A549 cells, 72 h compound exposure, MTT; read-out: IC50

First: C[C@]12CC[C@@H](NC(=O)CN)C[C@H]1CC[C@@H]1[C@@H]2CC[C@]2(C)[C@@H](c3ccc(=O)oc3)CC[C@]12O [Compound C11, 2-amino-N-((3R,5R,8R,9S,10S,13R,14S,17R)-14-hydroxy-10,13-dimethyl-17-(2-oxo-2H-pyran-5-yl)hexadecahydro-1H-cyclopenta[a]phenanthren-3-yl)acetamide]
Second: C[C@]12CC[C@@H](NC(=O)N3CCNCC3)C[C@H]1CC[C@@H]1[C@@H]2CC[C@]2(C)[C@@H](c3ccc(=O)oc3)CC[C@]12O [Compound C03, N-((3R,5R,8R,9S,10S,13R,14S,17R)-14-hydroxy-10,13-dimethyl-17-(2-oxo-2H-pyran-5-yl)hexadecahydro-1H-cyclopenta[a]phenanthren-3-yl)piperazine-1-carboxamide]
The pIC50 of the first is lower: 7.00 to 7.70 for the first, over 7.70 for the second.
